In ChEMBL document CHEMBL1201862, “PubChem BioAssay data set” (2004):
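Growth conditions: 96-well plates. Treatment: test compound, 48 hours, 5 concentrations. Analysis: linear interpolation between bracketing concentrations; unreached endpoints set to highest concentration. GI50: concentration for 50% inhibition of growth.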 The source made the active and inactive calls. Cut-off read from the data, not from the text of the source: active = GI50 up to about 1.1 µM and inactive = higher.

How the values were obtained:
Test in all cases: NCI-60 cell line screen, 48 h
Malme-3M = test system: Malme-3M
DU-145 = test system: DU-145
U-251 = test system: U-251
SNB-19 = test system: SNB-19
SW-620 = test system: SW-620
LOX IMVI = test system: LOX IMVI
CAKI-1 = test system: CAKI-1
MCF7 = test system: MCF7
HT-29 = test system: HT-29
ACHN = test system: ACHN
T47D = test system: T47D
HCC 2998 = test system: HCC 2998
EKVX = test system: EKVX
IGROV-1 = test system: IGROV-1
TK-10 = test system: TK-10
SK-OV-3 = test system: SK-OV-3
Hs-578T = test system: Hs-578T
OVCAR-4 = test system: OVCAR-4
PC-3 = test system: PC-3
OVCAR-3 = test system: OVCAR-3
UACC-62 = test system: UACC-62
NCI-H23 = test system: NCI-H23
HOP-62 = test system: HOP-62
SK-MEL-28 = test system: SK-MEL-28
NCI/ADR-RES = test system: NCI/ADR-RES
SK-MEL-2 = test system: SK-MEL-2
A549 = test system: A549
COLO 205 = test system: COLO 205
MDA-MB-231 = test system: MDA-MB-231
SF-295 = test system: SF-295
SNB-75 = test system: SNB-75
NCI-H522 = test system: NCI-H522
RXF 393 = test system: RXF 393
UACC-257 = test system: UACC-257
KM12 = test system: KM12
HCT-15 = test system: HCT-15
OVCAR-5 = test system: OVCAR-5
HL-60 = test system: HL-60
SF-539 = test system: SF-539
MDA-MB-435 = test system: MDA-MB-435
HCT-116 = test system: HCT-116
MDA-N = test system: MDA-N
CCRF-CEM = test system: CCRF-CEM
UO-31 = test system: UO-31
SF-268 = test system: SF-268
SN12C = test system: SN12C
MOLT-4 = test system: MOLT-4
OVCAR-8 = test system: OVCAR-8
M14 = test system: M14
NCI-H460 = test system: NCI-H460
BT-549 = test system: BT-549
K562 = test system: K562
SK-MEL-5 = test system: SK-MEL-5
786-0 = test system: 786-0
NCI-H226 = test system: NCI-H226
SR = test system: SR
RPMI-8226 = test system: RPMI-8226

Measured: GI50

CCOP(=O)(OCC)OC1c2[nH]ccc2-c2cc(C(=O)OC)[nH]c2C1OC (stereo unspecified)
59.3 µM: HCT-15
inactive: Malme-3M > 100 µM | DU-145 > 100 µM | U-251 > 100 µM | SNB-19 > 100 µM | SW-620 > 100 µM | LOX IMVI > 100 µM | CAKI-1 70.3 µM | MCF7 > 100 µM | HT-29 > 100 µM | ACHN > 100 µM | T47D 51.8 µM | HCC 2998 > 100 µM | EKVX > 100 µM | IGROV-1 > 100 µM | TK-10 73.6 µM | SK-OV-3 > 100 µM | Hs-578T 44.2 µM | OVCAR-4 > 100 µM | PC-3 66.8 µM | OVCAR-3 > 100 µM | UACC-62 45.8 µM | NCI-H23 > 100 µM | HOP-62 87.3 µM | SK-MEL-28 82 µM | NCI/ADR-RES > 100 µM | SK-MEL-2 > 100 µM | A549 > 100 µM | COLO 205 > 100 µM | MDA-MB-231 31.6 µM | SF-295 > 100 µM | SNB-75 89.3 µM | NCI-H522 > 100 µM | RXF 393 > 100 µM | UACC-257 > 100 µM | KM12 58.7 µM | OVCAR-5 > 100 µM | HL-60 62.1 µM | SF-539 > 100 µM | MDA-MB-435 77.4 µM | HCT-116 > 100 µM | MDA-N > 100 µM | CCRF-CEM > 100 µM | UO-31 46.3 µM | SF-268 > 100 µM | SN12C > 100 µM | MOLT-4 > 100 µM | OVCAR-8 > 100 µM | M14 > 100 µM | NCI-H460 56.8 µM | BT-549 36.5 µM | K562 > 100 µM | SK-MEL-5 38.5 µM | 786-0 > 100 µM

CC(C)CC(C(N)=O)C(=O)NC(Cc1ccccc1)NC(=O)CNC(=O)C(C)NC(=O)C(N)Cc1ccc(O)cc1 (stereo unspecified)
inactive: Malme-3M > 100 µM | NCI-H226 > 100 µM | DU-145 > 100 µM | U-251 > 100 µM | SNB-19 > 100 µM | SW-620 > 100 µM | LOX IMVI > 100 µM | CAKI-1 > 100 µM | MCF7 > 100 µM | HT-29 > 100 µM | ACHN > 100 µM | T47D > 100 µM | HCC 2998 > 100 µM | EKVX > 100 µM | IGROV-1 > 100 µM | TK-10 > 100 µM | SK-OV-3 > 100 µM | Hs-578T > 100 µM | OVCAR-4 > 100 µM | PC-3 > 100 µM | OVCAR-3 > 100 µM | UACC-62 > 100 µM | NCI-H23 > 100 µM | HOP-62 > 100 µM | SK-MEL-28 > 100 µM | NCI/ADR-RES > 100 µM | SK-MEL-2 > 100 µM | A549 > 100 µM | COLO 205 > 100 µM | MDA-MB-231 > 100 µM | SR > 100 µM | SF-295 > 100 µM | SNB-75 > 100 µM | NCI-H522 > 100 µM | RXF 393 > 100 µM | UACC-257 > 100 µM | KM12 > 100 µM | OVCAR-5 > 100 µM | HL-60 > 100 µM | SF-539 > 100 µM | MDA-MB-435 > 100 µM | HCT-116 > 100 µM | MDA-N > 100 µM | CCRF-CEM > 100 µM | UO-31 > 100 µM | SF-268 > 100 µM | SN12C > 100 µM | MOLT-4 > 100 µM | OVCAR-8 > 100 µM | M14 > 100 µM | NCI-H460 > 100 µM | BT-549 > 100 µM | RPMI-8226 > 100 µM | K562 > 100 µM | SK-MEL-5 > 100 µM | 786-0 > 100 µM
> 100 µM: HCT-15
